Measurements: patent US10392630B2, “Plants having increased tolerance to herbicides” (BASF AGRO B.V., priority 2013, dated 2019)
pIC50: −log10 of the molar value. Where “and” joins values, the source holds several entries; their conditions need not be identical. Equal values may be shown once.

Experiments:
[1] = target: Alopecurus mutant PPO (ALOMY), SEQ ID NO 2 with amino acid substitution; assay: PPO enzyme assay, dose-response (fluorescence), mutated Alopecurus PPO2; type: biochemical, Alopecurus myosuroides
[2] = system: Alopecurus wildtype PPO (ALOMY), PPO herbicide sensitive PPO2, SEQ ID NO 2; assay: PPO enzyme assay, dose-response (fluorescence), wildtype Alopecurus PPO2; type: biochemical, Alopecurus myosuroides; settings: Table 3a; PPO herbicide sensitive PPO2, SEQ ID NO 2, ALOMY
[3] = system: transgenic T0 corn events; assay: Herbicide injury of transgenic T0 corn events, greenhouse spray (Table 6a); type: in vivo, Zea mays; set-up: key: 0 is no injury relative to an unsprayed wild type check; 9 is completely dead; settings: 7 days after treatment
[4] = system: transgenic soybean cv Jake cuttings; assay: Herbicide injury of transgenic soybean cuttings from T0 plants (Table 7, FIG. 4); type: in vivo, Glyceine max; settings: V2 spray, 1 week after treatment
[5] = system: transgenic Arabidopsis thaliana plants; assay: Growth inhibition of transgenic Arabidopsis in 48-well plates, tolerance factor (Table 5, FIG. 2); type: in vivo; settings: growth inhibition seven to ten days after seeding

With CC(C)N(C)S(=O)(=O)NC(=O)c1cc(-n2c(=O)cc(C(F)(F)F)n(C)c2=O)c(F)cc1Cl [saflufenacil] the pIC50 [1] was less than 5.00, the pIC50 [2] was 6.68 and the “Herbicide injury, 0 to 9 rating scale” value ([3]; T0 corn events tp-SorbiPPO2::AlomyPPO2_F431V, 75 g ai/ha + 1% (v/v) MSO at V2 stage) was 3. The “Herbicide injury, 0 to 9 rating scale” value ([3]; T0 corn events tp-SorbiPPO2::AlomyPPO2_R130A_F431V, 75 g ai/ha + 1% (v/v) MSO at V2 stage) was 7, the “Herbicide injury, 0 to 9 rating scale” value ([3]; T0 corn events tp-ZeamaPPO2::AlomyPPO2_F431V, 75 g ai/ha + 1% (v/v) MSO at V2 stage) was 0 and the “Herbicide injury, 0 to 9 rating scale” value ([3]; T0 corn events tp-ZeamaPPO2::AlomyPPO2_R130A, 75 g ai/ha + 1% (v/v) MSO at V2 stage) was 0. For the same molecule, the “Herbicide injury, 0 to 9 rating scale” value ([3]; untransformed wild type corn, 50 g ai/ha + 1% (v/v) MSO at V2 stage) was 7, the “Herbicide injury, 0 to 9 rating scale” value ([3]; untransformed wild type corn, 75 g ai/ha + 1% (v/v) MSO at V2 stage) was 8 and the “Herbicide injury, 0 to 9 rating scale” value ([3]; untransformed wild type corn, 100 g ai/ha + 1% (v/v) MSO at V2 stage) was 8. The Herbicide injury ([4]; AlomyPPO1_R138A T0 cuttings, BAS 800H 25 g ai/ha) was 6 and 9, the Herbicide injury ([4]; AlomyPPO1_R138A_Y420M T0 cuttings, BAS 800H 25 g ai/ha) was 0 and the Herbicide injury ([4]; AlomyPPO1_R138A_Y420M T0 cuttings, BAS 800H 50 g ai/ha) was 3. For the same molecule, the Herbicide injury ([4]; AlomyPPO1_R138A_Y420M T0 cuttings, BAS 800H 100 g ai/ha) was 3, the Herbicide injury ([4]; AlomyPPO1_R138L T0 cuttings, BAS 800H 25 g ai/ha) was 8 and 7 and 6 and the Herbicide injury ([4]; AlomyPPO1_R138L T0 cuttings, BAS 800H 50 g ai/ha) was 8 and 9 and 6 and 7. The Herbicide injury ([4]; AlomyPPO1_R138L T0 cuttings, BAS 800H 100 g ai/ha) was 8 and 9, the Herbicide injury ([4]; AlomyPPO1_Y420M T0 cuttings, BAS 800H 50 g ai/ha) was 5 and 4 and 8 and the Herbicide injury ([4]; AlomyPPO1_Y420M T0 cuttings, BAS 800H 100 g ai/ha) was 5 and 4 and 8. The Herbicide injury ([4]; AlomyPPO2_R137A T0 cuttings, BAS 800H 25 g ai/ha) was 3, the Herbicide injury ([4]; AlomyPPO2_R137A T0 cuttings, BAS 800H 50 g ai/ha) was 0 and the Herbicide injury ([4]; AlomyPPO2_R137A T0 cuttings, BAS 800H 100 g ai/ha) was 2. For the same molecule, the Herbicide injury ([4]; AlomyPPO2_R137A_F438L T0 cuttings, BAS 800H 200 g ai/ha) was 6 and 9, the Herbicide injury ([4]; AlomyPPO2_R137A_F438V T0 cuttings, BAS 800H 200 g ai/ha) was 4 and 3 and 6 and the Herbicide injury ([4]; AlomyPPO2_R137L_F438I T0 cuttings, BAS 800H 100 g ai/ha) was 9. For the same molecule, the Herbicide injury ([4]; AlomyPPO2_R137L_F438I T0 cuttings, BAS 800H 200 g ai/ha) was 9, the Herbicide injury ([4]; AlomyPPO2_R137M_F438L T0 cuttings, BAS 800H 50 g ai/ha) was 4 and the Herbicide injury ([4]; AlomyPPO2_R137M_F438L T0 cuttings, BAS 800H 100 g ai/ha) was 6 and 3. For the same molecule, the Herbicide injury ([4]; AlomyPPO2_R137M_F438M T0 cuttings, BAS 800H 50 g ai/ha) was 9, the Herbicide injury ([4]; Wild type cuttings, BAS 800H 25 g ai/ha) was 9 and the Herbicide injury ([4]; Wild type cuttings, BAS 800H 50 g ai/ha) was 9. For the same molecule, the Herbicide injury ([4]; Wild type cuttings, BAS 800H 100 g ai/ha) was 9, the Herbicide injury ([4]; Wild type cuttings, BAS 800H 200 g ai/ha) was 9 and the “TF (Tolerance Factor), relative tolerance rate (non-transgenic = 1.0)” value ([5]; transgenic Arabidopsis Am_PPO2_F438I) was 3300. For the same molecule, the “TF (Tolerance Factor), relative tolerance rate (non-transgenic = 1.0)” value ([5]; transgenic Arabidopsis Am_PPO2_R137A) was 1500, the “TF (Tolerance Factor), relative tolerance rate (non-transgenic = 1.0)” value ([5]; transgenic Arabidopsis Am_PPO2_R137A_F438I) was 950 and the “TF (Tolerance Factor), relative tolerance rate (non-transgenic = 1.0)” value ([5]; transgenic Arabidopsis Am_PPO2_R137A_F438L) was 2300. The “TF (Tolerance Factor), relative tolerance rate (non-transgenic = 1.0)” value ([5]; transgenic Arabidopsis Am_PPO2_R137A_F438M) was 2500, the “TF (Tolerance Factor), relative tolerance rate (non-transgenic = 1.0)” value ([5]; transgenic Arabidopsis Am_PPO2_R137A_F438V) was 2500 and the “TF (Tolerance Factor), relative tolerance rate (non-transgenic = 1.0)” value ([5]; transgenic Arabidopsis Am_PPO2_R137I) was 2140. For the same molecule, the “TF (Tolerance Factor), relative tolerance rate (non-transgenic = 1.0)” value ([5]; transgenic Arabidopsis Am_PPO2_R137L_F438I) was 2700, the “TF (Tolerance Factor), relative tolerance rate (non-transgenic = 1.0)” value ([5]; transgenic Arabidopsis Am_PPO2_R137L_F438L) was 2700 and the “TF (Tolerance Factor), relative tolerance rate (non-transgenic = 1.0)” value ([5]; transgenic Arabidopsis Am_PPO2_R137L_F438M) was 3100. The “TF (Tolerance Factor), relative tolerance rate (non-transgenic = 1.0)” value ([5]; transgenic Arabidopsis Am_PPO2_R137M_F438I) was 1740, the “TF (Tolerance Factor), relative tolerance rate (non-transgenic = 1.0)” value ([5]; transgenic Arabidopsis Am_PPO2_R137M_F438L) was 1340 and the “TF (Tolerance Factor), relative tolerance rate (non-transgenic = 1.0)” value ([5]; transgenic Arabidopsis Am_PPO2_R137M_F438M) was 1700. The “TF (Tolerance Factor), relative tolerance rate (non-transgenic = 1.0)” value ([5]; transgenic Arabidopsis Am_PPO2_R137M_F438V) was 1900.
